Data as given in the supplement of paper PMC11061612.

Columns and labels:
Experiment in all cases: Bliss excess, mean over the matrix (fraction); higher = more synergy
AGS (Gastric Carcinoma) = test system: AGS (Gastric Carcinoma)
Method in brief: (§1)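 After 24 hours at 37°C and 5% CO2 in 1536-well plates, cells in DMEM/F12 or RPMI plus 10% FBS received two-drug dose matrices for 72 hours. Viability came from CellTiter-Glo 2.0 luminescence and was scaled as inhibition, anchored at 0 by vehicle wells and at 1 by blank wells. Combination Emax is taken as the second-highest inhibition in the matrix, and Bliss excess as the observed combination effect less EA + EB − EA·EB, with EA and EB the single-agent effects.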

[1] = test system: B-CPAP (Thyroid Gland Carcinoma)
Method in brief: as §1

[2] = test system: CCRF-CEM (T-Lymphoblastic Leukemia)
Method in brief: as §1

[3] = test system: COLO-205 (Colorectal Carcinoma)
Method in brief: as §1

[4] = test system: CaR-1 (Colorectal Carcinoma)
Method in brief: as §1

[5] = test system: Calu-3 (Lung Adenocarcinoma)
Method in brief: as §1

[6] = test system: Daoy (Other Solid Carcinomas)
Method in brief: as §1

[7] = test system: EC-GI-10 (Esophageal Squamous Cell Carcinoma)
Method in brief: as §1

[8] = test system: HCC-78 (Lung Adenocarcinoma)
Method in brief: as §1

[9] = test system: HO-1-N-1 (Oral Cavity Carcinoma)
Method in brief: as §1

HOS (Osteosarcoma) = test system: HOS (Osteosarcoma)
Method in brief: as §1

[10] = test system: HT-1376 (Bladder Carcinoma)
Method in brief: as §1

[11] = test system: KP-1N (Pancreatic Carcinoma)
Method in brief: as §1

[12] = test system: KYSE-520 (Esophageal Squamous Cell Carcinoma)
Method in brief: as §1

[13] = test system: LNCaP-Clone-FGC (Prostate Carcinoma)
Method in brief: as §1

[14] = test system: MFE-296 (Endometrial Carcinoma)
Method in brief: as §1

[15] = test system: Ramos-2G6-4C10 (Burkitt's Lymphoma)
Method in brief: as §1

[16] = test system: SNU-5 (Gastric Carcinoma)
Method in brief: as §1

[17] = test system: TCCSUP (Bladder Carcinoma)
Method in brief: as §1

[18] = test system: TE-9 (Esophageal Squamous Cell Carcinoma)
Method in brief: as §1

CC1(C)CCC(CN2CCN(c3ccc(C(=O)NS(=O)(=O)c4ccc(NCC5CCOCC5)c([N+](=O)[O-])c4)c(Oc4cnc5[nH]ccc5c4)c3)CC2)=C(c2ccc(Cl)cc2)C1 [Venetoclax] + C=CCn1c(=O)c2cnc(Nc3ccc(N4CCN(C)CC4)cc3)nc2n1-c1cccc(C(C)(C)O)n1 [AZD1775] (first compound max 1 µM, partner max 1 µM)
Bliss excess (AGS (Gastric Carcinoma)): -0.0506
Bliss excess [1]: -0.0835
Bliss excess [2]: 0.0922
Bliss excess [3]: -0.0661
Bliss excess [4]: -0.0159
Bliss excess [5]: -0.0074
Bliss excess [6]: -0.0683
Bliss excess [7]: 0.0086
Bliss excess [8]: 0.0098
Bliss excess [9]: 0.0912
Bliss excess (HOS (Osteosarcoma)): -0.0335
Bliss excess [10]: -0.0226
Bliss excess [11]: -0.047
Bliss excess [12]: -0.0907
Bliss excess [13]: -0.0599
Bliss excess [14]: -0.0391
Bliss excess [15]: 0.127
Bliss excess [16]: -0.0649
Bliss excess [17]: -0.055
Bliss excess [18]: 0.0674

CC1(C)CCC(CN2CCN(c3ccc(C(=O)NS(=O)(=O)c4ccc(NCC5CCOCC5)c([N+](=O)[O-])c4)c(Oc4cnc5[nH]ccc5c4)c3)CC2)=C(c2ccc(Cl)cc2)C1 [Venetoclax] + CCN(CCO)CCCOc1ccc2c(Nc3cc(CC(=O)Nc4cccc(F)c4)[nH]n3)ncnc2c1 [AZD2811] (first compound max 1 µM, 7x7, partner max 1 µM)
Bliss excess (AGS (Gastric Carcinoma)): 0.0196
Bliss excess [1]: 0.0031
Bliss excess [2]: -0.0322
Bliss excess [3]: -0.0461
Bliss excess [4]: -0.055
Bliss excess [5]: -0.0057
Bliss excess [6]: -0.0311
Bliss excess [7]: -0.0058
Bliss excess [8]: -0.0149
Bliss excess [9]: -0.032
Bliss excess (HOS (Osteosarcoma)): -0.0102
Bliss excess [10]: -0.0605
Bliss excess [11]: -0.0182
Bliss excess [12]: -0.0294
Bliss excess [13]: -0.0706
Bliss excess [14]: -0.013
Bliss excess [15]: 0.0321
Bliss excess [16]: -0.0426
Bliss excess [17]: -0.0259
Bliss excess [18]: -0.0184

CC1(C)CCC(CN2CCN(c3ccc(C(=O)NS(=O)(=O)c4ccc(NCC5CCOCC5)c([N+](=O)[O-])c4)c(Oc4cnc5[nH]ccc5c4)c3)CC2)=C(c2ccc(Cl)cc2)C1 [Venetoclax] + CN(C)CCCOc1ccc(-c2ccc3ncc4c(c3c2)n(C2CCOCC2)c(=O)n4C)cn1 [AZD0156] (first compound max 1 µM, 7x7, partner max 1 µM)
Bliss excess (AGS (Gastric Carcinoma)): -0.0191
Bliss excess [1]: 0.0113
Bliss excess [2]: 0.0436
Bliss excess [3]: -0.0153
Bliss excess [4]: -0.0201
Bliss excess [5]: -0.0113
Bliss excess [6]: -0.0076
Bliss excess [7]: 0.0119
Bliss excess [8]: 0.0213
Bliss excess [9]: 0.0445
Bliss excess (HOS (Osteosarcoma)): -0.033
Bliss excess [10]: -0.0151
Bliss excess [11]: -0.0431
Bliss excess [12]: -0.0218
Bliss excess [13]: -0.0503
Bliss excess [14]: 0.0003
Bliss excess [15]: 0.0676
Bliss excess [16]: 0.0053
Bliss excess [17]: -0.036
Bliss excess [18]: -0.0213

CC1(C)CCC(CN2CCN(c3ccc(C(=O)NS(=O)(=O)c4ccc(NCC5CCOCC5)c([N+](=O)[O-])c4)c(Oc4cnc5[nH]ccc5c4)c3)CC2)=C(c2ccc(Cl)cc2)C1 [Venetoclax] + COc1cc(Nc2ncc3c(n2)-c2ccc(Cl)cc2C(c2c(F)cccc2OC)=NC3)ccc1C(=O)O [Alisertib] (first compound max 1 µM, 7x7, partner max 10 µM)
Bliss excess (AGS (Gastric Carcinoma)): 0.0353
Bliss excess [1]: -0.0128
Bliss excess [2]: -0.0493
Bliss excess [3]: -0.0172
Bliss excess [4]: 0.008
Bliss excess [5]: -0.0228
Bliss excess [6]: 0.105
Bliss excess [7]: 0.0164
Bliss excess [8]: 0.0127
Bliss excess [9]: -0.0846
Bliss excess (HOS (Osteosarcoma)): -0.0132
Bliss excess [10]: -0.0812
Bliss excess [11]: 0.0194
Bliss excess [12]: -0.0489
Bliss excess [13]: 0.0008
Bliss excess [14]: -0.0285
Bliss excess [15]: 0.0209
Bliss excess [16]: -0.0218
Bliss excess [17]: -0.0341
Bliss excess [18]: 0.0148

CC1(C)CCC(CN2CCN(c3ccc(C(=O)NS(=O)(=O)c4ccc(NCC5CCOCC5)c([N+](=O)[O-])c4)c(Oc4cnc5[nH]ccc5c4)c3)CC2)=C(c2ccc(Cl)cc2)C1 [Venetoclax] + C[C@@H]1COCCN1C2=NC(=NC(=C2)C3(CC3)[S@](=N)(=O)C)C4=C5C=CNC5=NC=C4 [AZD6738] (first compound max 1 µM, 7x7, partner max 10 µM)
Bliss excess (AGS (Gastric Carcinoma)): -0.0423
Bliss excess [1]: -0.0136
Bliss excess [2]: 0.0224
Bliss excess [3]: -0.0328
Bliss excess [4]: -0.0005
Bliss excess [5]: -0.0023
Bliss excess [6]: -0.028
Bliss excess [7]: 0.0294
Bliss excess [8]: -0.0195
Bliss excess [9]: -0.0248
Bliss excess (HOS (Osteosarcoma)): -0.0099
Bliss excess [10]: -0.0365
Bliss excess [11]: -0.0217
Bliss excess [12]: -0.0353
Bliss excess [13]: -0.0645
Bliss excess [14]: -0.0296
Bliss excess [15]: -0.0389
Bliss excess [16]: -0.0437
Bliss excess [17]: -0.1
Bliss excess [18]: -0.0019

CC1(C)CCC(CN2CCN(c3ccc(C(=O)NS(=O)(=O)c4ccc(NCC5CCOCC5)c([N+](=O)[O-])c4)c(Oc4cnc5[nH]ccc5c4)c3)CC2)=C(c2ccc(Cl)cc2)C1 [Venetoclax] + C[C@@H](Nc1cc(F)cc(F)c1)c1cc(C(=O)N(C)C)cc2c(=O)cc(N3CCOCC3)oc12 [AZD8186] (first compound max 1 µM, 7x7, partner max 3 µM)
Bliss excess (AGS (Gastric Carcinoma)): -0.0458
Bliss excess [1]: -0.0151
Bliss excess [2]: 0.012
Bliss excess [3]: 0.0279
Bliss excess [4]: -0.0366
Bliss excess [5]: -0.0189
Bliss excess [6]: -0.0073
Bliss excess [7]: -0.0139
Bliss excess [8]: -0.0337
Bliss excess [9]: -0.009
Bliss excess (HOS (Osteosarcoma)): -0.0262
Bliss excess [10]: -0.0446
Bliss excess [11]: 0.0036
Bliss excess [12]: -0.06
Bliss excess [13]: -0.0066
Bliss excess [14]: -0.0248
Bliss excess [15]: 0.0107
Bliss excess [16]: 0.0236
Bliss excess [17]: -0.0442
Bliss excess [18]: -0.0185

CC1(C)CCC(CN2CCN(c3ccc(C(=O)NS(=O)(=O)c4ccc(NCC5CCOCC5)c([N+](=O)[O-])c4)c(Oc4cnc5[nH]ccc5c4)c3)CC2)=C(c2ccc(Cl)cc2)C1 [Venetoclax] + Cc1cc2ncnn2cc1Nc1ncc2c(n1)n(C1CCOCC1)c(=O)n2C [AZD7648] (first compound max 1 µM, 7x7, partner max 10 µM)
Bliss excess (AGS (Gastric Carcinoma)): -0.0505
Bliss excess [1]: -0.0146
Bliss excess [2]: 0.044
Bliss excess [3]: -0.0584
Bliss excess [4]: -0.048
Bliss excess [5]: 0.0113
Bliss excess [6]: -0.0129
Bliss excess [7]: 0.038
Bliss excess [8]: -0.017
Bliss excess [9]: 0.0318
Bliss excess (HOS (Osteosarcoma)): -0.0019
Bliss excess [10]: -0.0226
Bliss excess [11]: -0.0217
Bliss excess [12]: -0.0284
Bliss excess [13]: -0.0963
Bliss excess [14]: -0.0065
Bliss excess [15]: 0.0435
Bliss excess [16]: -0.0063
Bliss excess [17]: -0.0444
Bliss excess [18]: -0.0175
